According to patent US11186592B2, “Thiazolopyridine derivatives as adenosine receptor antagonists” (MERCK PATENT GMBH, priority 2017, dated 2021):

Assays:
Format in all cases: cell-based
human A2B receptor = biological target: T1, human A2B receptor (Homo sapiens, UniProt P29275); assay: cAMP (HTRF) functional assay, recombinant HEK293 cells expressing human A2B receptor, agonist NECA
T1 construct: expressed in transfected cells; host or cells: HEK293
T1 sequence (P29275 1-332): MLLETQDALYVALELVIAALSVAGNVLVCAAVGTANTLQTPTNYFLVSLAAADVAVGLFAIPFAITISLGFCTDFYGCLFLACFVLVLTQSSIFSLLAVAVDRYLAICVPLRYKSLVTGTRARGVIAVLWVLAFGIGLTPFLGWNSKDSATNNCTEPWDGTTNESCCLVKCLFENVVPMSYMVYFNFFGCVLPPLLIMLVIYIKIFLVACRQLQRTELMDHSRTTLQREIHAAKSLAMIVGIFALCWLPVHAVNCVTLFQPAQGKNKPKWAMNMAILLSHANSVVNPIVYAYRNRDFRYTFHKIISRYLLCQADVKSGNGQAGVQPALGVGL
Experimental: (§1) The functional activities of human A2A, A2B, A1 and A3 receptors were determined by quantification of cAMP, being the second messenger for adenosine receptors.
(§2) Cells were seeded into 384-well plates, forskolin, test compounds and agonists (CPA for A1- and IB-MECA for A3-receptor) were added. After 30 min incubation, HTRF reagents (cAMP dynamic 2, Cis Bio) were added and the cellular cAMP levels were determined using the ENVISION (Perkin Elmer) plate reader. Obtained raw data were normalized against the inhibitor control and the neural control (DMSO) and the normalized data were fitted using GeneData software.

human A1 receptor = biological target: T2, human A1 receptor (Homo sapiens, UniProt P30542); assay: cAMP (HTRF) functional assay, recombinant CHO cells expressing human A1 receptor, forskolin + agonist CPA
T2 construct: expressed in transfected cells; host or cells: CHO
T2 sequence (P30542 1-326): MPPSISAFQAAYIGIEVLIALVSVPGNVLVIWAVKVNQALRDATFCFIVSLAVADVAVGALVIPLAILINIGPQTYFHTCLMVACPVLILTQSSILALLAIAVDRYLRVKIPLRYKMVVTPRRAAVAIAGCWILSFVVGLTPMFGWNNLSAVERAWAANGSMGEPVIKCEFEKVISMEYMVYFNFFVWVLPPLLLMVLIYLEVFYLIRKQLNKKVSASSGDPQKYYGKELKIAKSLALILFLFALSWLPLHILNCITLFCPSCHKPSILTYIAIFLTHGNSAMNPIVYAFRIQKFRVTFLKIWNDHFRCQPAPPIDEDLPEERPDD
Experimental: as §1
For human A1 and A3 receptors, recombinant CHO cells, expressing either A1 or A3-receptor, were used. As both receptors couple to Gi proteins, the assay protocol was adapted:
as §2

human A2A receptor = biological target: T3, human A2A receptor (Homo sapiens, UniProt P29274); assay: cAMP (HTRF) functional assay, recombinant HEK293 cells expressing human A2A receptor, agonist NECA
T3 construct: expressed in transfected cells; host or cells: HEK293
T3 sequence (P29274 whole entry): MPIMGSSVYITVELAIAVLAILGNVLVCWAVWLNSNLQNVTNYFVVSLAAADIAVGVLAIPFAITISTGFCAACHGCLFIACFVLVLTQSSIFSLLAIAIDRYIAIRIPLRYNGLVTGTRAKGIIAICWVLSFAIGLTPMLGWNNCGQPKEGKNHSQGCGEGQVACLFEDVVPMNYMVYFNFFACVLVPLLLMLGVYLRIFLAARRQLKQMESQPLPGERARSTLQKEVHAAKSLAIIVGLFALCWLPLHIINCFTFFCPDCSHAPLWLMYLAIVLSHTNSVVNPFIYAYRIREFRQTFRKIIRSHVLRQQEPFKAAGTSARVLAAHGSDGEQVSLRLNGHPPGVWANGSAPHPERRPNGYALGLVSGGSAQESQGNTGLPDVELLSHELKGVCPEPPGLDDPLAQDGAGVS
Experimental: as §1, §2

Row | SMILES | IC50 (human A2B receptor) | IC50 (human A1 receptor) | IC50 (human A2A receptor)
1 | COc1ncc(-c2cnn(C)c2)c2sc(NC(=O)N3CC[C@]4(CCCOC4)C3)nc12 [compound 177, (R)-7-Oxa-2-aza-spiro[4.5]decane-2-carboxylic acid [4-methoxy-7-(1-methyl-1H-pyrazol-4-yl)-thiazolo[4,5-c]pyridin-2-yl]-amide] | < 100 nM | > 1000 nM | < 10 nM
2 | COc1ncc(C2CCOCC2)c2sc(NC(=O)c3ccc(CN4CCCC4=O)cc3)nc12 [compound 180, N-[4-Methoxy-7-(tetrahydro-pyran-4-yl)-thiazolo[4,5-c]pyridin-2-yl]-4-(2-oxo-pyrrolidin-1-ylmethyl)-benzamide] | < 100 nM | < 1000 nM | < 10 nM
3 | COc1ncc(C2CCOCC2)c2sc(NC(=O)c3cnc(C)s3)nc12 [compound 181, 2-Methyl-thiazole-5-carboxylic acid [4-methoxy-7-(tetrahydro-pyran-4-yl)-thiazolo[4,5-c]pyridin-2-yl]-amide] | < 100 nM | < 1000 nM | < 10 nM
4 | COc1ncc(-c2ccc(F)cc2)c2sc(NC(=O)N3CCC4(CCOCC4)C3)nc12 [compound 193, 8-Oxa-2-aza-spiro[4.5]decane-2-carboxylic acid [7-(4-fluoro-phenyl)-4-methoxy-thiazolo[4,5-c]pyridin-2-yl]-amide] | < 100 nM | > 1000 nM | < 10 nM
5 | COc1ncc(-c2ccccc2)c2sc(NC(=O)N3CCC4(CCCC4N)CC3)nc12 (stereo not shown) [compound 201, 1-amino-N-{4-methoxy-7-phenyl-[1,3]thiazolo[4,5-c]pyridin-2-yl}-8-azaspiro[4.5]decane-8-carboxamide] | < 100 nM | – | < 10 nM
6 | COc1ncc(-c2ccncc2)c2sc(NC(=O)N3CCC4(CCOCC4)C3)nc12 [compound 212, 8-Oxa-2-aza-spiro[4.5]decane-2-carboxylic acid (4-methoxy-7-pyridin-4-yl-thiazolo[4,5-c]pyridin-2-yl)-amide] | < 100 nM | > 1000 nM | < 10 nM
7 | COc1ncc(N2CCOCC2)c2sc(NC(=O)c3ccc(N4C(=O)CCC4=O)cc3)nc12 [compound 214, 4-(2,5-Dioxo-pyrrolidin-1-yl)-N-(4-methoxy-7-morpholin-4-yl-thiazolo[4,5-c]pyridin-2-yl)-benzamide] | < 100 nM | > 1000 nM | < 10 nM
8 | COc1ncc(-c2ccncc2)c2sc(NC(=O)c3ccc(C(=O)N(C)C)cc3)nc12 [compound 219, N-(4-Methoxy-7-pyridin-4-yl-thiazolo[4,5-c]pyridin-2-yl)-N′,N′-dimethyl-terephthalamide] | < 100 nM | > 1000 nM | < 10 nM
9 | COc1ncc(C2CCOCC2)c2sc(NC(=O)N3CCC4(CCOCC4)C3)nc12 [compound 232, 8-Oxa-2-aza-spiro[4.5]decane-2-carboxylic acid [4-methoxy-7-(tetrahydro-pyran-4-yl)-thiazolo[4,5-c]pyridin-2-yl]-amide] | < 100 nM | > 1000 nM | < 10 nM

Results, then the molecule that gave them:

Row | IC50 (human A2B receptor) | IC50 (human A1 receptor) | IC50 (human A2A receptor) | SMILES
10 | < 100 nM | > 1000 nM | < 10 nM | COc1ncc(-c2cnn(C)c2)c2sc(NC(=O)c3ccc(CN(C)C)cc3)nc12 [compound 22, 4-Dimethylaminomethyl-N-[4-methoxy-7-(1-methyl-1H-pyrazol-4-yl)-thiazolo[4,5-c]pyridin-2-yl]-benzamide]
11 | < 100 nM | > 1000 nM | < 10 nM | COc1ncc(C2CCOCC2)c2sc(NC(=O)c3ccc(CN(C)C)cc3)nc12 [compound 27, 4-Dimethylaminomethyl-N-[4-methoxy-7-(tetrahydro-pyran-4-yl)-thiazolo[4,5-c]pyridin-2-yl]-benzamide]
12 | < 100 nM | > 1000 nM | < 10 nM | COc1ncc(N2CCOCC2)c2sc(NC(=O)c3ccc(Cn4ccnc4)cc3)nc12 [compound 33, 4-Imidazol-1-ylmethyl-N-(4-methoxy-7-morpholin-4-yl-thiazolo[4,5-c]pyridin-2-yl)-benzamide]
13 | < 100 nM | – | < 10 nM | COc1ncc(N2CCOCC2)c2sc(NC(=O)N3CCC4(CCCOC4)C3)nc12 (stereo not shown) [compound 34, 7-Oxa-2-aza-spiro[4.5]decane-2-carboxylic acid (4-methoxy-7-morpholin-4-yl-thiazolo[4,5-c]pyridin-2-yl)-amide]
14 | < 100 nM | < 1000 nM | < 10 nM | COc1ncc(-c2ccccc2)c2sc(NC(=O)c3ccc(CN4CCCC4=O)cc3)nc12 [compound 62, N-(4-Methoxy-7-phenyl-thiazolo[4,5-c]pyridin-2-yl)-4-(2-oxo-pyrrolidin-1-ylmethyl)-benzamide]
15 | < 100 nM | > 1000 nM | < 10 nM | COc1ncc(-c2cnn(C)c2)c2sc(NC(=O)N3CCC4(CCCOC4)C3)nc12 (stereo not shown) [compound 80, 7-Oxa-2-aza-spiro[4.5]decane-2-carboxylic acid [4-methoxy-7-(1-methyl-1H-pyrazol-4-yl)-thiazolo[4,5-c]pyridin-2-yl]-amide]
16 | < 100 nM | > 1000 nM | < 10 nM | COc1ncc(-c2cnn(C)c2)c2sc(NC(=O)N3CCC4(CCOCC4)C3)nc12 [compound 81, 8-Oxa-2-aza-spiro[4.5]decane-2-carboxylic acid [4-methoxy-7-(1-methyl-1H-pyrazol-4-yl)-thiazolo[4,5-c]pyridin-2-yl]-amide]
17 | < 100 nM | > 1000 nM | < 10 nM | COc1ncc(C2CCOCC2)c2sc(NC(=O)c3cnc(C)o3)nc12 [compound 147, 2-Methyl-oxazole-5-carboxylic acid [4-methoxy-7-(tetrahydro-pyran-4-yl)-thiazolo[4,5-c]pyridin-2-yl]-amide]
18 | < 100 nM | – | < 10 nM | COc1ncc(N2CCOCC2)c2sc(NC(=O)N3CC[C@@]4(CCCOC4)C3)nc12 [compound 168, (S)-7-Oxa-2-aza-spiro[4.5]decane-2-carboxylic acid (4-methoxy-7-morpholin-4-yl-thiazolo[4,5-c]pyridin-2-yl)-amide]
19 | < 100 nM | – | < 10 nM | COc1ncc(N2CCOCC2)c2sc(NC(=O)c3ccc(CN4CCCC4=O)cc3)nc12 [compound 170, N-(4-Methoxy-7-morpholin-4-yl-thiazolo[4,5-c]pyridin-2-yl)-4-(2-oxo-pyrrolidin-1-ylmethyl)-benzamide]
20 | < 100 nM | > 1000 nM | < 10 nM | COc1ncc(-c2cnn(C)c2)c2sc(NC(=O)N3CC[C@@]4(CCOC4)C3)nc12 [compound 172, (R)-2-Oxa-7-aza-spiro[4.4]nonane-7-carboxylic acid [4-methoxy-7-(1-methyl-1H-pyrazol-4-yl)-thiazolo[4,5-c]pyridin-2-yl]-amide]
21 | < 100 nM | > 1000 nM | < 10 nM | COc1ncc(-c2cnn(C)c2)c2sc(NC(=O)N3CC[C@@]4(CCCOC4)C3)nc12 [compound 176, (S)-7-Oxa-2-aza-spiro[4.5]decane-2-carboxylic acid [4-methoxy-7-(1-methyl-1H-pyrazol-4-yl)-thiazolo[4,5-c]pyridin-2-yl]-amide]
22 | < 10 nM | – | < 10 nM | COc1nc(F)c(-c2ccccc2)c2sc(NC(=O)N3CCC4(CCOCC4)C3)nc12 [compound 229, 8-Oxa-2-aza-spiro[4.5]decane-2-carboxylic acid (6-fluoro-4-methoxy-7-phenyl-thiazolo[4,5-c]pyridin-2-yl)-amide]
23 | < 10 nM | < 1000 nM | < 10 nM | COc1ncc(C2=CCOCC2)c2sc(NC(=O)N3CCC4(CCOCC4)C3)nc12 [compound 237, 8-Oxa-2-aza-spiro[4.5]decane-2-carboxylic acid [7-(3,6-dihydro-2H-pyran-4-yl)-4-methoxy-thiazolo[4,5-c]pyridin-2-yl]-amide]
